# In patent US20260041706A1, “MUCUS MEMBRANE FORMULATIONS AND USES THEREOF” (priority 2022, published 2026):
# Values joined by “and” are separate entries in the source; they are usually repeats but may differ in a detail not shown here. Identical values can stand only once. Like-named read-outs stand apart in the source and are kept apart here.
# How the values were obtained:
# [1] = system: human nasal epithelial cell (RPMI-2650)-based monolayer
# [2] = system: HKx31 Influenza A virus (H3N2); assay: In vitro neutralization assay with Influenza A (plaque assay in MDCK cells); assay type: cell-based; conditions: 10 or 60 min incubation; agent evaluated individually
# [3] = system: SARS-CoV-2 mNG; assay: In vitro neutralization assay with SARS-CoV-2 (focus-forming assay in Vero E6 cells); assay type: cell-based
# [4] = system: Escherichia coli (E. coli); assay: In vitro neutralization assay with bacteria (CFU), E. coli; assay type: cell-based; conditions: incubation time of 30 min
# Experimental: (§1) Neutralization was determined by measuring the bactericidal activity. Each agent was individually incubated with either E. coli or K. pneumoniae for 30 or 60 min, followed by 1-minute centrifugation, and then evaluating the bacterial load in the supernatant using a colony-forming assay.
# (§2) An overnight culture of bacteria was prepared in 5 mL tryptic soy broth (TSB, Sigma Aldrich) media. On the day of the experiment, bacteria suspension was adjusted to obtain an OD600 nm=0.2, which corresponds to 10^8 CFU/mL. […] After incubation, the sample/bacteria mixture was 10-fold serially diluted in 1×PBS, and 10 mL of each dilution was plated onto pre-poured LB (Luria Broth, HiMedia Laboratories Pvt Ltd) agar plates followed by an incubation of 16-18 h at 37° C., 5% CO2. The plates were then counted for CFUs.
# [5] = system: Klebsiella pneumoniae; assay: In vitro neutralization assay with bacteria (CFU), K. pneumoniae; assay type: cell-based; conditions: incubation time of 30 min
# Experimental: as §1, §2
# [6] = for fluorescence intensity (droplet capture) relative to mucus or biopolymer mixture without surfactant: surfactant 0.05% w/V in gellan (0.2% w/v) and pectin (0.75% w/v) mixture
# [7] = mouse, in vivo
# Text: (§3) To test our hypothesis, we compared nasal residence time of DiR-loaded mixture of gellan and pectin without or with surfactants.
# (§4) In vivo biodistribution and nasal residence. Nasal residence time of the formulation was determine in mice. […] Mice were euthanized at different time points and nasal cavity was harvested and imaged using IVIS (Bruker's In-Vivo Xtreme optical and x-ray in vivo imaging system) at an excitation and emission wavelength of 680/700 nm. Vital organs such as lung, liver, spleen, kidney, and heart, were also imaged at 2 and 24 h time points. To determine the mechanism of long residence time, animals were intranasally instilled with DiR-mixed gellan (0.02% w/v) and pectin (0.75% w/v) mixture without or with BKC and tween-80. After 8 h, animals were euthanized to harvest and image the nasal cavity using Perkin Elmer IVIS Lumina II and the total flux was expressed in (p/sec/m^2/sr).
# [8] = system: RPMI 2650 cells; conditions: 0.5% w/v; 24 or 48 h incubation
# [9] = In vivo biodistribution and nasal residence (DiR fluorescence, IVIS); conditions: 8 h post-nasal administration, DiR-loaded
# Text: as §3, §4
Substance,"change in TEER (in words) ([1]; Triton-X 0.1% w/v, negative control)",reduction in IAV viral titer in host cells in comparison to PBS [2] [log fold],minimum concentration required to achieve >4-log fold (>99.99%) reduction in SARS-CoV-2 viral load [3] [% w/v],"reduction in SARS-CoV-2 viral load in host cells ([3]; 10 or 60 min incubation, agent evaluated individually)","neutralization efficiency of BKC against SARS-CoV-2 in presence of gellan or pectin ([3]; BKC 0.01% w/v, gellan 0.2% w/v or pectin 0.75% w/v, 10 min)",reduction in colony-forming units (CFU) of E. coli [4] [log fold],reduction in colony-forming units (CFU) of Klebsiella pneumoniae [5] [log fold],capture of respiratory droplets (in words) ([6]; BKC at 0.01% w/v),fluorescence intensity (droplet capture) relative to mucus or biopolymer mixture without surfactant [6] [fold],"surfactant concentration above which fluorescence intensity (droplet capture) increased significantly ([6]; surfactant combined with gellan/pectin mixture, vs mucus or only biopolymer mixture)",nasal residence of gellan and pectin mixture on addition of surfactant [7],transient dip in TEER immediately after addition ([1]; irrespective of the concentrations evaluated),time for TEER to reverse to original value after replacing with fresh medium ([1]; medium replaced at 4 h),metabolic activity of RPMI-2650 cells [8],nasal residence of gellan and pectin mixture on addition of surfactant [9]
"Triton X-100 [Triton-X, reference compound]",permanent change in the TEER,,,,,,,,,,,,,,
benzalkonium chloride [BKC],,1,0.01,5 log fold and > 99.99%,not impacted,4,7,didn't increase the capture of respiratory droplets,4,higher than 0.01 % w/v,significantly enhanced the nasal residence,,,,
polyoxyethylene 20 sorbitan monooleate [Tween-80],,1,,,,,,,4,,,less than 15%,less than 1 h,significant reduction in the metabolic activity,significantly enhanced the nasal residence
